Reference: patent publication US4289786A, “Farnesylacetic acid ester derivatives” (Kuraray Co., Ltd., priority 1978, dated 1981)
Values belong to the molecule of their own block, whether it stands above or below them.

Legend:
[1] = system: indomethacin-induced ulcers on the gastric mucosa; experiment: Indomethacin-induced ulcer (antiulcerogenic activity); format: in vivo, male Donryu rats; conditions: Rattus norvegicus, 7 h; indomethacin 15 mg/kg s.c.; test compound 300 mg/kg oral, 10 minutes prior; hydrochlorides except one quaternary ammonium salt; read-out: Prevention ratio
Method: After fasting for 24 hours, male Donryu rats weighing 210 to 230 grams were administered subcutaneously with indomethacin suspended in 1% aqueous solution of carboxymethylcellulose at a dosage level of 15 mg/kg. Seven hours later, the animals were sacrificed by ether inhalation. The rat stomach was cut open and the indomethacin-induced ulcers appearing on the gastric mucosa were measured for their length in mm. The total length of ulcers per animal was designated as the ulcer index. The farnesylacetic acid ester derivatives (test compounds) prepared by any of the synthetic procedures described above and geranyl farnesylacetate as a control were orally administered 10 minutes prior to the indomethacin administration. The antiulcerogenic activity was evaluated in terms of the prevention ratio, i.e. the quotient of the difference in ulcer index between the test compound group and the control group divided by the ulcer index for the control group. The numbers in the test compound column are those previously assigned to the exemplary compounds of the present invention each represented by a structural formula, and the example numbers are the numbers of examples wherein preparation of the corresponding compounds is described. The test compounds were all hydrochlorides except for one quaternary ammonium salt.

Wistar rats = experiment: Acute toxicity--1 (oral, rats); format: in vivo; conditions: rats
Method: (§1) Wistar rats, five weeks of age, were fed previously for one week and then subjected to the test. All the test compounds were administered orally. The observation period was 2 weeks. The test compounds (4), (1) and (16) used were the products prepared in the above Examples 2, 1 and 8, respectively, and were all in the form of hydrochlorides.

[2] = Acute toxicity--1 (oral, rats); format: in vivo; conditions: rat, in vivo, Wistar rats, observation 2 weeks, hydrochlorides
Method: as §1

[3] = system: stress ulcer on the gastric gland; experiment: Stress ulcer (water immersion restraint); format: in vivo, male Donryu rats; conditions: 300 mg/kg oral, 10 minutes before immersion; 23° C. water, seven hours; hydrochlorides
Method: Male Donryu rats weighing 240-260 grams were immobilized in wire cages (cf. Japanese Journal of Pharmacology, 18, 9-18 (1968)) and placed under stress by immersing them in water at 23° C. to the level of the breast. Seven hours later, the animals were taken up from the water tank and immediately sacrificed by blowing and the stomach was excised. The stomach was inflated with 1% formalin and then cut open and the ulcer on the gastric gland were measured for length in mm. The total ulcer length per animal was designated as the ulcer index. In the above-mentioned test, the compounds (hydrochlorides) (test compounds (1) and (4)) prepared by the procedure of Examples 1 and 2, respectively and geranyl farnesylacetate were administered orally to the rats 10 minutes before the immersion. In the Table, the prevention ratio has the same meaning as defined for the indomethacin-induced ulcer in Example 16.

[4] = Aqueous solution of hydrochloride; format: physicochemical; conditions: in water
Method: Using the lower alkyl esters of farnesylacetic acids shown in Table 1 and the amino alcohols also shown in Table 1, ester exchange reaction was carried out by the procedure of Example 1, to prepare a variety of amine-nitrogen-containing farnesylacetic acid esters and hydrochlorides thereof. In the chemical formula appearing in the table, P stands for a prenyl group, G a geranyl group and F a farnesyl group.

[5] = Acute toxicity--2 (oral, mice); format: in vivo; conditions: mouse, in vivo, ddY mice, observation one week, hydrochlorides
Method: (§2) Five-week-old ddY mice were fed previously for one week and then subjected to the test. All the test compounds were administered orally and the observation period was one week. The test compounds (23), (7) and (13) used were the products of the above Example 5, 10 and 4, respectively and were all in the form of hydrochlorides (the product of Example 10 was converted into the hydrochloride by a conventional method).

ddY mice = experiment: Acute toxicity--2 (oral, mice); format: in vivo; conditions: mice
Method: as §2

mice = conditions: cited from earlier work
rats = conditions: cited from earlier work
ulcers = conditions: known compounds, prior art; cited from earlier work

SMILES: CC(C)=CCCC(C)=CCCC(C)=CCC(Cc1ccccc1)C(=O)OCCN(C)C (stereo not shown) [(16)]
inhibition in vivo at 300 mg/kg [1]: 84.5% | Number of dead animals/number of animals used (Wistar rats; dose 5 g/kg): 0/5 | Number of dead animals/number of animals used (Wistar rats; dose 10 g/kg): 1/5 | Number of dead animals/number of animals used (Wistar rats; dose 15 g/kg): 1/5 | LD50 at 336 h [2]: > 15000 mg/kg

SMILES: CCN(CC)CCOC(=O)CCC=C(C)CCC=C(C)CCC=C(C)C [(1), 2-diethylaminoethyl farnesylacetate]
Prevention ratio [3]: 42.1% | inhibition in vivo at 300 mg/kg [1]: 64.1% | Number of dead animals/number of animals used (Wistar rats; dose 4.1 g/kg): 0/5 | Number of dead animals/number of animals used (Wistar rats; dose 5.4 g/kg): 0/5 | LD50 at 336 h [2]: > 5400 mg/kg

Appearance of aqueous solution of hydrochloride (water solubility) [4]: Insoluble
SMILES: CCN(CCOC(=O)CCC=C(C)CCC=C(C)CCC=C(C)C)c1ccccc1 [(14)]
inhibition in vivo at 300 mg/kg [1]: 70.2%

SMILES: CC(C)=CCCC(C)=CCCC(C)=CCCC(=O)OCCN1CCN(CCO)CC1 [(23)]
LD50 at 168 h [5]: 4000 mg/kg | Number of dead animals/number of animals used (ddY mice; dose 1.3 g/kg): 0/3 | Number of dead animals/number of animals used (ddY mice; dose 4.0 g/kg): 2/4 | Number of dead animals/number of animals used (ddY mice; dose 6.6 g/kg): 3/3 | inhibition in vivo at 300 mg/kg [1]: 93.2%

SMILES: CC[N+](CC)(CC)CCOC(=O)CCC=C(C)CCC=C(C)CCC=C(C)C [(2), farnesylacetoxyethyltriethylammonium bromide]
inhibition in vivo at 300 mg/kg [1]: 68.8%

SMILES: CC(C)=CCCC(C)=CCCC(C)=CCCC(=O)OCC=C(C)CCC=C(C)C [Geranyl farnesylacetate, 3,7-dimethyl-2,6-octadienyl 5,9,13-trimethyl-4,8,12-tetradecatrienoate]
LD50 (mice): more than 8 g/kg | Prevention ratio [3]: 32.0% | inhibition in vivo at 300 mg/kg [1]: 6.1% | LD50 (rats): more than 8 g/kg | antiulcer / antiulcerogenic activity (in words) (ulcers): high antiulcerogenic activity

SMILES: CC(C)=CCCC(C)=CCCC(C)=CCCC(=O)OCCN(CC=C(C)CCC=C(C)C)CC=C(C)CCC=C(C)C [(13)]
LD50 at 168 h [5]: 7000 mg/kg | Number of dead animals/number of animals used (ddY mice; dose 1 g/kg): 0/3 | Number of dead animals/number of animals used (ddY mice; dose 2 g/kg): 1/3 | Number of dead animals/number of animals used (ddY mice; dose 6 g/kg): 2/3 | Number of dead animals/number of animals used (ddY mice; dose 10 g/kg): 2/3 | Number of dead animals/number of animals used (ddY mice; dose 20 g/kg): 3/3 | Appearance of aqueous solution of hydrochloride (water solubility) [4]: Insoluble | inhibition in vivo at 300 mg/kg [1]: 81.3%

SMILES: CCN1CCC(OC(=O)CCC=C(C)CCC=C(C)CCC=C(C)C)CC1 [(24), N-ethyl-4-farnesylacetoxy-piperidine]
inhibition in vivo at 300 mg/kg [1]: 76.6%

SMILES: CC(C)=CCCC(C)=CCCC(C)=CCCC(=O)OCC1CCCCN1C (stereo not shown) [(26)]
inhibition in vivo at 300 mg/kg [1]: 47.9%

SMILES: CC(C)=CCCC(C)=CCCC(C)=CCCC(=O)OC(C)(C)CN(C)C [(7), 1,1-dimethyl-2-dimethylaminoethyl farnesylacetate]
LD50 at 168 h [5]: 8400 mg/kg | Number of dead animals/number of animals used (ddY mice; dose 6 g/kg): 0/4 | Number of dead animals/number of animals used (ddY mice; dose 8 g/kg): 1/3 | Number of dead animals/number of animals used (ddY mice; dose 10 g/kg): 3/3 | inhibition in vivo at 300 mg/kg [1]: 91.7%

SMILES: CC(C)=CCCC(C)=CCCC(C)=CCCC(=O)OCCCN(C)C [(4), 3-Dimethylaminopropyl farnesylacetate]
Prevention ratio [3]: 40.1% | inhibition in vivo at 300 mg/kg [1]: 65.8% | Number of dead animals/number of animals used (Wistar rats; dose 3 g/kg): 0/5 | Number of dead animals/number of animals used (Wistar rats; dose 4 g/kg): 0/5 | LD50 at 336 h [2]: > 4000 mg/kg
